Reference: patent US5385842A, “Anthraquinones as inhibitors of sulfide production from sulfate-reducing bacteria” (E. I. Du Pont de Nemours and Company, priority 1993, dated 1995)
Structures can show the parent of a compound that is named as a salt.

Each compound was assayed on Desulfovibrio desulfuricans G100A (assay: microbe, parasite or virus in culture). Conditions: not given.
Type: cell-based

With `Nc1cccc2c1C(=O)c1ccccc1C2=O` [1-Aminoanthraquinone] the “inhibition of sulfide production (in words)” value was “inhibited sulfide formation”.

Same assay, conditions: Desulfovibrio desulfuricans, G100A, read-out: % Inhib. (inhibition of sulfide production)

Compared with `Cc1cc(O)c2c(c1O)C(=O)c1cccc(O)c1C2=O` [Islandicin, 1,4,5-Trihydroxy-2-methyl-9,10-anthracenedione], `Cc1cc(O)c2c(c1)C(=O)c1c(O)ccc(O)c1C2=O` [Helminthosporin, 1,5,8-Trihydroxy-3-methyl-9,10-anthracenedione] is lower in inhibition at 10 ppm: 50% for the first, 31.3% for the second.

First: CN(C)Cc1ccc(Nc2ccc(N)c3c2C(=O)c2ccccc2C3=O)cc1 [Basic Blue 47, 1-Amino-4-[4-[(dimethylamino)methyl]phenyl]amino-9,10-anthracenedione]
Second: Nc1cccc2c1C(=O)c1ccccc1C2=O [1-Aminoanthraquinone]
The inhibition at 10 ppm of the first is higher: 37.2% for the first, 28.4% for the second.

Going from `Nc1c(S(=O)(=O)O)cc(Br)c2c1C(=O)c1ccccc1C2=O` [1-Amino-4-bromo-9,10-dihydro-9,10-dioxo-2-anthracene-sulfonic acid, Na salt] to `Nc1c(Br)cc(Br)c2c1C(=O)c1ccccc1C2=O` [1-Amino-2,4-dibromoanthraquinone], the inhibition at 10 ppm rises from 4.3% to 44.6%.

First: O=C1c2ccccc2C(=O)c2c1cc(S(=O)(=O)O)c(O)c2O [Alizarin red S monohydrate, 3,4-Dihydroxy-9,10-dioxo-2-anthracenesulfonic acid]
Second: Nc1c(O)c(S(=O)(=O)O)c(O)c2c1C(=O)c1ccccc1C2=O [Nuclear fast red, 4-Amino-9,10-dihydro-1,3-dihydroxy-9,10-dioxo-2-anthracenesulfonic acid, monosodium salt]
The inhibition at 10 ppm of the first is lower: 0% for the first, 20.4% for the second.

Going from `O=C1c2ccccc2C(=O)c2ccccc21` [Anthraquinone] to `Nc1ccc2c(c1N)C(=O)c1ccccc1C2=O` [1,2-Diaminoanthraquinone], the inhibition at 10 ppm falls from 37.5% to 28.9%.

Going from `Oc1ccc2c(O)c3ccccc3cc2c1O` [Anthrarobin, 1,2,10-Anthracenetriol] to `O=C1c2cccc(O)c2C(=O)c2cccc(O)c21` [1,5-Dihydroxyanthraquinone], the inhibition at 10 ppm falls from 44.4% to 31%.

Going from `CN(C)CCOc1ccc2c(c1)C(=O)c1ccc(OCCN(C)C)cc1C2=O` [Tilorone analog R11,043DA, 2,6-Bis[2-(dimethylamino)ethoxy]-9,10-anthracenedione] to `O=C1c2ccc(O)cc2C(=O)c2ccc(O)cc21` [2,6-Dihydroxyanthraquinone], the inhibition at 10 ppm falls from 98.7% to 28.2%.

First: C=CS(=O)(=O)c1cccc(Nc2cc(S(=O)(=O)O)c(N)c3c2C(=O)c2ccccc2C3=O)c1 [Acid blue 215, 1-Amino-4-[[3-(ethenylsulfonyl)phenyl]-9,10-dihydro-9,10-dioxo]-2-anthracene sulfonic acid, monosodium salt]
Second: O=C1c2ccccc2C(=O)c2c1cccc2N(NS(=O)(=O)O)S(=O)(=O)O [1-(9,10-Dihydro-9,10-dioxo-1-anthracenyl)-1,2-hydrazinedisulfonic acid, di Na salt]
The inhibition at 10 ppm of the first is higher: 19.7% for the first, 10% for the second.

Going from `O=C1c2ccc3nc(-c4ccccc4)sc3c2C(=O)c2ccc3nc(-c4ccccc4)sc3c21` [Indanthrene yellow GCN, 2,8-Diphenyl-anthra[2,1-d:6,5-d']bisthiazole-6,12-dione] to `O=C1c2cccc(S(=O)(=O)O)c2C(=O)c2cccc([N+](=O)[O-])c21` [5-Nitroanthraquinone-1-sulfonic acid, 9,10-Dihydro-5-nitro-9,10-dioxo-1-anthracenesulfonic acid], the inhibition at 10 ppm rises from 15.6% to 66%.

`O=C1c2ccccc2C(=O)C2CC=CCC12` (stereo not shown) [1,4,4a,9a-Tetrahydroanthraquinone] gave an inhibition at 10 ppm of 0 to 7%.

Compared with `Cc1ccc(Nc2ccc(Nc3ccc(C)cc3)c3c2C(=O)c2cccc(O)c2C3=O)cc1` [Sudan green, 5-hydroxy-1,4-bis[(4-methylphenyl)amino]-9,10-anthracenedione], `Cc1ccc(Nc2ccc(O)c3c2C(=O)c2ccccc2C3=O)cc1` [1-Hydroxy-4-(p-toluidino)-anthraquinone, 1-Hydroxy-4-[(4-methylphenyl)amino]-9,10-anthracene-dione] is higher in inhibition at 30 ppm: 0% for the first, 3.9% for the second.

First: CNc1ccc(NC)c2c1C(=O)c1ccccc1C2=O [1,4-Bis(methylamino)-anthraquinone]
Second: CNc1ccc(NCCO)c2c1C(=O)c1ccccc1C2=O [Disperse blue 3, 1-(2-Hydroxyethyl)amino-4-methylaminoanthraquinone]
The inhibition at 30 ppm of the first is higher: 8.6% for the first, 6.4% for the second.

Going from `CNc1ccc(Br)c2c1C(=O)c1ccccc1C2=O` [1-Bromo-4-(methylamino)anthraquinone] to `CCNc1ccc(NCC)c2c1C(=O)c1ccccc1C2=O` [Sudan blue, 1,4-Bis(ethylamino)-9,10-anthracenedione], the inhibition at 30 ppm rises from 0% to 1.3%.

Going from `O=C1c2cccc(OCc3ccccc3)c2C(=O)c2c(OCc3ccccc3)cccc21` [1,8-Dibenzyloxyanthraquinone, 1,8-Bis(phenylmethoxy)-9,10-anthracenedione] to `O=C(Nc1cccc2c1C(=O)c1cccc(NC(=O)c3ccccc3)c1C2=O)c1ccccc1` [1,5-Dibenzamidoanthraquinone, N,N'-(9,10-Dihydro-9,10-dioxo-1,5-anthracenediyl)-bisbenzamide], the inhibition at 30 ppm falls from 4.5% to 0%.

First: O=C1c2ccccc2C(=O)c2c(SBr)cccc21 [1-(Bromothio)anthraquinone]
Second: Cc1ccc2c(c1[N+](=O)[O-])C(=O)c1ccccc1C2=O [2-Methyl-1-nitroanthraquinone]
The inhibition at 30 ppm of the first is lower: 6.5% for the first, 50% for the second.

Going from `O=C1c2ccccc2C(=O)c2c(Nc3cccc4c3C(=O)c3ccccc3C4=O)cccc21` [Dianthrimide, 1,1'-Iminobis-9,10-anthracenedione] to `O=C1c2ccccc2C(=O)c2c1cccc2-c1cccc2c1C(=O)c1ccccc1C2=O` [1,1'-Bianthraquinone, [1,1'-Bianthracene]-9,9'10,10'-tetrone], the inhibition at 30 ppm rises from 2.6% to 12.9%.

First: Nc1ccc(N)c2c1C(=O)c1c(N)ccc(N)c1C2=O [Disperse blue 1, 1,4,5,8-Tetraaminoanthraquinone]
Second: Nc1ccc(N)c2c1C(=O)c1cccc([N+](=O)[O-])c1C2=O [1,4-Diamino-5-nitroanthraquinone]
The inhibition at 30 ppm of the first is higher: 3.9% for the first, 2.7 to 3% for the second.

Going from `O=C1c2ccccc2C(=O)c2c(O)c(O)cc(O)c21` [Purpurin, 1,2,4-Trihydroxyanthraquinone] to `O=C1c2ccccc2C(=O)c2c(O)c(S(=O)(=O)O)cc(O)c21` [9,10-Dihydro-1,4-dihydroxy-9,10-dioxo-2-anthracenesulfonic acid], the inhibition at 30 ppm falls from 55.7% to 7.8%.

Going from `O=C(Nc1ccc(Nc2ccc(NC(=O)c3ccccc3)c3c2C(=O)c2ccccc2C3=O)c2c1C(=O)c1ccccc1C2=O)c1ccccc1` [4,4'-Dibenzamido-1,1'-dianthrimide, N,N'-[Iminobis(9,10-dihydro-9,10-dioxo-4,1-anthracenediyl)]bisbenzamide] to `O=C(Nc1ccc(Cl)c2c1C(=O)c1ccccc1C2=O)c1ccccc1` [1-Benzamido-4-chloroanthraquinone, N-(4-Chloro-9,10-dihydro-9,10-dioxo-1-anthracenyl)-benzamide], the inhibition at 30 ppm rises from 5.2% to 8.6%.

Compared with `O=C1c2c(Cl)ccc(Cl)c2C(=O)c2c(Cl)ccc(Cl)c21` [1,4,5,8-Tetrachloroanthraquinone], `O=C1c2cccc(Cl)c2C(=O)c2c(Cl)cccc21` [1,8-Dichloroanthraquinone] is lower in inhibition at 30 ppm: 50.6% for the first, 3.9% for the second.

Compared with `Cc1cc2c(cc1Br)C(=O)c1ccccc1C2=O` [2-Bromo-3-methylanthraquinone], `CC(C)(C)c1ccc2c(c1)C(=O)c1ccccc1C2=O` [2-tert-butylanthraquinone] is lower in inhibition at 30 ppm: 26% for the first, 5.2% for the second.

First: COc1cccc2c1C(=O)c1c(O)c3c(c(O)c1C2=O)C[C@@](O)(C(C)=O)C[C@@H]3O[C@H]1C[C@H](N)[C@H](O)[C@H](C)O1 [Daunomycin hydrochloride, (8S-cis)-8-Acetyl-10[(3-amino-2,3,6-trideoxy-alpha-L-lyxo-hexopyranosyl)oxy]-7,8,9,10-tetrahydro-6,8,11-trihydroxy-1-methoxy-5,12-naphthacenedione hydrochloride, reference compound]
Second: O=C1c2cc(Cl)c(Cl)cc2C(=O)c2c(O)ccc(O)c21 [6,7-Dichloro-1,4-dihydroxyanthraquinone]
The inhibition at 30 ppm of the first is higher: 62.9% for the first, 5.7% for the second.

Compared with `O=C1c2ccccc2C(=O)c2cc(NC(=O)C3CC3)ccc21` [2-(Cyclopropylcarboxamido)anthraquinone], `O=C1c2cccc(Cl)c2C(=O)c2cccc(Cl)c21` [1,5-Dichloroanthraquinone] is higher in inhibition at 30 ppm: 2.6% for the first, 100% for the second.

Compared with `CCCCCNc1ccc(NCCCCC)c2c1C(=O)c1ccccc1C2=O` [Oil blue N, 1,4-Bis(pentylamino)-9,10-anthracenedione], `Nc1c(OCCOc2ccccc2)c(OCCOc2ccccc2)c(N)c2c1C(=O)c1ccccc1C2=O` [1,4-Diamino-2,3-bis(2-phenoxyethoxy)anthraquinone] is higher in inhibition at 30 ppm: 3.6% for the first, 7.8% for the second.

Compared with `Cc1ccc(Nc2ccc(Nc3ccc(C)cc3S(=O)(=O)O)c3c2C(=O)c2c(O)ccc(O)c2C3=O)c(S(=O)(=O)O)c1` [alizarine viridine, 2,2'-[(9,10-Dihydro-5,8-dihydroxy-9,10-dioxo-1,4-anthracenediyl)diimino]bis[5-methyl]benzenesulfonic acid], `Oc1cccc2cc3cccc(O)c3c(O)c12` [1,8-Dihydroxyanthranol, 1,8-Dihydroxy-9-anthranol] is higher in inhibition at 30 ppm: 2.6% for the first, 88.3% for the second.

First: Cc1c(C(=O)O)c(O)cc2c1C(=O)c1c(O)c([C@@H]3O[C@H](CO)[C@@H](O)[C@H](O)[C@H]3O)c(O)c(O)c1C2=O [Carminic acid, 7-β-D-Glucopyranosyl-9,10-dihydro-3,5,6,8-tetra-hydroxy-1-methyl-9,10-dioxo-2-anthracene-carboxylic acid]
Second: Cc1cc(Br)c2c(c1N)C(=O)c1ccccc1C2=O [1-Amino-4-bromo-2-methylanthraquinone]
The inhibition at 10 µg/mL of the first is lower: 0% for the first, 8% for the second.

First: CCc1ccc2c(c1)C(=O)c1ccccc1C2=O [2-Ethylanthraquinone]
Second: O=C(O)c1ccc2c(c1)C(=O)c1ccccc1C2=O [Anthraquinone-2-carboxylic acid]
The inhibition at 10 µg/mL of the first is higher: 57.1% for the first, 22.6% for the second.

Same assay, conditions: Table III, Example 3

With `Nc1cccc2c1C(=O)c1ccccc1C2=O` [1-Aminoanthraquinone] the “% inhibition of sulfide formation” value was 72%.
